Laboratory results from ChEMBL document CHEMBL1153700, “Synthesis and SAR of novel, non-MPEP chemotype mGluR5 NAMs identified by functional HTS” (Bioorg Med Chem Lett, 2009).

How the values were obtained:
[1] = target: Metabotropic glutamate receptor 5 (Rattus norvegicus) (UniProt P31424); assay: Antagonist activity at rat mGluR5 expressed in human HEK293A cells assessed as inhibition of glutamate-induced calcium flux relative to glutamate; type: functional, cell-based; conditions: HEK293-A
[2] = target: Metabotropic glutamate receptor 5 (Rattus norvegicus, UniProt P31424); assay: Antagonist activity at rat mGluR5 expressed in human HEK293A cells assessed as inhibition of glutamate-induced calcium flux; type: functional, cell-based, HEK293-A
[3] = target: Metabotropic glutamate receptor 5 (Homo sapiens, UniProt P41594); assay: Antagonist activity at mGluR5; type: functional
Sequence of Metabotropic glutamate receptor 5 (Homo sapiens, UniProt P41594) (P41594 whole entry): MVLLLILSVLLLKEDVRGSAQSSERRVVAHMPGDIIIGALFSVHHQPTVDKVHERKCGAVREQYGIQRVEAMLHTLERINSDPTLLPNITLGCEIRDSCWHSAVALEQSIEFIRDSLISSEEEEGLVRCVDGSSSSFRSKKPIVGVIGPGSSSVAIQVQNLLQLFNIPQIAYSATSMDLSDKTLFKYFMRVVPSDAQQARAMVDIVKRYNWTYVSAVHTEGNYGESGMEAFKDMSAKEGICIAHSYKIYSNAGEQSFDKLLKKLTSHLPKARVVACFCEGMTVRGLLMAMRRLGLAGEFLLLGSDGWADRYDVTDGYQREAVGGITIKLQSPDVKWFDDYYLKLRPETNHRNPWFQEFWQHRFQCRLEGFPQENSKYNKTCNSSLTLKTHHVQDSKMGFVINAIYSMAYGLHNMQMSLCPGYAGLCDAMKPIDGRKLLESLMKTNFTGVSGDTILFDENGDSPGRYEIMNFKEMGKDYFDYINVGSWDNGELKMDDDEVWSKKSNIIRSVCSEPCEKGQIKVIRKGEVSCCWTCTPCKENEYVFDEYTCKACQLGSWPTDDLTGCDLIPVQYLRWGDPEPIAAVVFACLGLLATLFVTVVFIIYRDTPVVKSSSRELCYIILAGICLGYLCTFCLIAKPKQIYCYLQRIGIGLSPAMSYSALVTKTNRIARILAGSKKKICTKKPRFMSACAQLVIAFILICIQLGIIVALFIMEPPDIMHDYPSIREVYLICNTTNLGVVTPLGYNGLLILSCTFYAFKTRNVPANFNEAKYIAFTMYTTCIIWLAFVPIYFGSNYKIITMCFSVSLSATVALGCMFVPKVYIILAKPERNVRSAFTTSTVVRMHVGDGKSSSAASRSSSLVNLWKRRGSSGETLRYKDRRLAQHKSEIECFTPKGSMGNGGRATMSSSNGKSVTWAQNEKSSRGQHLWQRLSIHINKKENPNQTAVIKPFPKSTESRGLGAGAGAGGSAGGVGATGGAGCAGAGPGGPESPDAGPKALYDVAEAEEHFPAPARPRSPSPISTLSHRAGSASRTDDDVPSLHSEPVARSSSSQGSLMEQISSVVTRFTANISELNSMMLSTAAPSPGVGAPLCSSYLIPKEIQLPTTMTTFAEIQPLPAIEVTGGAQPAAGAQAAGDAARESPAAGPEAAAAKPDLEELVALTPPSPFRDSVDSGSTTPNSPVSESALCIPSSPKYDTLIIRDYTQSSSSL

Sequence of Metabotropic glutamate receptor 5 (Rattus norvegicus, UniProt P31424) (P31424 whole entry): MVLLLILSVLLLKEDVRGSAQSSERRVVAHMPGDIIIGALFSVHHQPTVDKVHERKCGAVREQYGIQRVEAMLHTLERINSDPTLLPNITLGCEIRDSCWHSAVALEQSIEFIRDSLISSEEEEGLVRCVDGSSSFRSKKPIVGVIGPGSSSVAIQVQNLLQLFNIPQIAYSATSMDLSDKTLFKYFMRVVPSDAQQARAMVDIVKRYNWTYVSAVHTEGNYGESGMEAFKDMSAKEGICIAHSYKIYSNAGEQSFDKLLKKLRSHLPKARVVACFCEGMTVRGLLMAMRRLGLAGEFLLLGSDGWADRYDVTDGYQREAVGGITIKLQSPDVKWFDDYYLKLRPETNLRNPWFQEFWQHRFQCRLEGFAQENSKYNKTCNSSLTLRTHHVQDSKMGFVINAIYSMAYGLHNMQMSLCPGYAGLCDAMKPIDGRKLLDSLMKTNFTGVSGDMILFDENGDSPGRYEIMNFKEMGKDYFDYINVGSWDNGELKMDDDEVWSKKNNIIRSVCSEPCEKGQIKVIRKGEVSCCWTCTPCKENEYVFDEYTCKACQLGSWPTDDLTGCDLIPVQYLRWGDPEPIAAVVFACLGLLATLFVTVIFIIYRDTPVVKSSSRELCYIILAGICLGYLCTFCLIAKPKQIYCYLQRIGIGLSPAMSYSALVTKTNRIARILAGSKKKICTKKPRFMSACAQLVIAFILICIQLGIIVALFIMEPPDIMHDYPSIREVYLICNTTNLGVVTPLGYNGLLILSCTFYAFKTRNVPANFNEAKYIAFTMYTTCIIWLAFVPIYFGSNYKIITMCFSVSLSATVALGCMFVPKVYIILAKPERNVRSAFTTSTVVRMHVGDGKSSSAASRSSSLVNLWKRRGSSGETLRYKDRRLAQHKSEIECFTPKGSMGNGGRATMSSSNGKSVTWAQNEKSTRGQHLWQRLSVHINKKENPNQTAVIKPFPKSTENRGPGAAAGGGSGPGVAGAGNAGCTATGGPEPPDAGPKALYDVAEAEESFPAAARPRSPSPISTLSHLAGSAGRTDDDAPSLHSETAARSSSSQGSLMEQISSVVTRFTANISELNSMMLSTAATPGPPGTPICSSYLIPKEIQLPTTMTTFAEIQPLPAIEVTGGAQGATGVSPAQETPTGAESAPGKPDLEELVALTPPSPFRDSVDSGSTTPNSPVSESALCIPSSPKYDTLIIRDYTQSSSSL
Sequence of Metabotropic glutamate receptor 5 (Rattus norvegicus) (P31424 21-1203 limits assumed): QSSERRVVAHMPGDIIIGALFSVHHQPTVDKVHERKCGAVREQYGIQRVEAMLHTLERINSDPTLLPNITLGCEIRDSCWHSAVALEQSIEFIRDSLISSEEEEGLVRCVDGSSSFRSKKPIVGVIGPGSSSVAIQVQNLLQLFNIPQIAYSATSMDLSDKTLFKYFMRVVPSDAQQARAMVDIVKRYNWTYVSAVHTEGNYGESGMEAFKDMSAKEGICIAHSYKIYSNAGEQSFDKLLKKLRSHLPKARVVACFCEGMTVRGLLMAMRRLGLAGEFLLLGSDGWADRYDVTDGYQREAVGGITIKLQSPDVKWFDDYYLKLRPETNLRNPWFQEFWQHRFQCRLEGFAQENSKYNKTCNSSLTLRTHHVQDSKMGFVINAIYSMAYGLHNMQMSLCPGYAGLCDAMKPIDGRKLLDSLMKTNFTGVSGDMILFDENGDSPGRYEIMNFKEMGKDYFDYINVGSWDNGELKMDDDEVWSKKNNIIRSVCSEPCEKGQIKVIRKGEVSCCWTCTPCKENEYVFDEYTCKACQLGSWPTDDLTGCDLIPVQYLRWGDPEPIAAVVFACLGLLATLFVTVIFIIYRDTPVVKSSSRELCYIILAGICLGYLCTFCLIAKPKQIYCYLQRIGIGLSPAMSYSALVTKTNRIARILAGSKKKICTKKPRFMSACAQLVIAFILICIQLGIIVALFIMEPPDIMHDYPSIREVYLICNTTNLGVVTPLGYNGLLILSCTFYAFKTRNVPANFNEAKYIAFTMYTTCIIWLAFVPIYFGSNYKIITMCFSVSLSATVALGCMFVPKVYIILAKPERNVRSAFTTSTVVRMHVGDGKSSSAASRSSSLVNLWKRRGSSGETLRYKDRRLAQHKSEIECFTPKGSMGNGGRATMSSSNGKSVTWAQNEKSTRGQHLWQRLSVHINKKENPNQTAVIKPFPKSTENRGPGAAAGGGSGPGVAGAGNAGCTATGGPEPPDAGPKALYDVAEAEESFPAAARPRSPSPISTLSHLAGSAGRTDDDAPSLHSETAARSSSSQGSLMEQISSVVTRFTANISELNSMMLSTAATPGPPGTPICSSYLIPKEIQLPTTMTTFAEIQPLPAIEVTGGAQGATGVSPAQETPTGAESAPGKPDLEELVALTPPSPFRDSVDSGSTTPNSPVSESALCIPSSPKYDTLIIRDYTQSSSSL

| SMILES | % Glu Max [1] [%] | IC50 [2] [µM] | IC50 [3] [µM] |
| --- | --- | --- | --- |
| O=C(NC1CC2CCC1C2)c1cccc(N2C(=O)c3ccccc3C2=O)c1 (stereo not drawn) | 71 | > 30 | – |
| COCC(=O)Nc1cccc(NC(=O)c2cccc(Cl)c2)c1 | – | > 30 | – |
| COCC(=O)Nc1cccc(NC(=O)c2ccccc2OC)c1 | – | > 30 | – |
| COc1ccccc1C(=O)Nc1cccc(NC(=O)c2ccc(Cl)cc2)c1 | – | > 30 | – |
| O=C(Nc1ccc(F)cc1)c1cccc(N2C(=O)c3ccccc3C2=O)c1 | 73 | > 30 | – |
| O=C(Cc1ccccc1)Nc1cccc(NC(=O)c2cccc(Cl)c2)c1 | – | > 30 | – |
| O=C(Nc1cccc(NC(=O)c2ccccc2Cl)c1)c1cccc(Cl)c1 | 8.78 | 2.62 | – |
| COc1ccccc1NC(=O)c1cccc(N2C(=O)c3ccccc3C2=O)c1 | 86 | > 30 | – |
| COc1ccccc1C(=O)Nc1cccc(NC(=O)c2ccc(Cl)c(Cl)c2)c1 | – | > 30 | – |
| O=C(Nc1cccnc1)c1cccc(N2C(=O)c3ccccc3C2=O)c1 | 86 | > 30 | – |
| COc1cc(NC(=O)c2cccc(N3C(=O)c4ccccc4C3=O)c2)cc(OC)c1 | 76.2 | 3.58 | – |
| COc1ccccc1C(=O)Nc1cccc(NC(=O)c2cccc(C)c2)c1 | 3.82 | 1.35 | – |
| O=C(Nc1cccc(NC(=O)c2ccc(Cl)c(Cl)c2)c1)c1cccc(Cl)c1 | – | > 30 | – |
| O=C(Nc1cccc(NC(=O)c2cccc(Cl)c2)c1)c1cccc(F)c1 | – | > 30 | – |
| COc1ccccc1C(=O)Nc1cccc(NC(=O)C2CC2c2ccccc2)c1 (stereo not drawn) | – | > 30 | – |
| O=C(Nc1cccc(Cl)c1)c1cccc(N2C(=O)c3ccccc3C2=O)c1 | 26.4 | 1.78 | – |
| COc1ccccc1C(=O)Nc1cccc(NC(=O)C2CC2)c1 | – | > 30 | – |
| COc1ccccc1C(=O)Nc1cccc(NC(=O)c2ccco2)c1 | – | > 30 | – |
| COc1ccccc1C(=O)Nc1cccc(NC(=O)c2cccc(C(F)(F)F)c2)c1 | 26.1 | 10.6 | – |
| O=C(Nc1cccc(NC(=O)c2cccc(Cl)c2)c1)c1ccc(Cl)cc1 | – | > 30 | – |
| COc1ccccc1C(=O)Nc1cccc(NC(=O)C23CC4CC(CC(C4)C2)C3)c1 | – | > 30 | – |
| CC(=O)Nc1cccc(NC(=O)c2cccc(Cl)c2)c1 | 39.6 | 7.97 | – |
| O=C(Nc1cccc(NC(=O)C2CCC2)c1)c1cccc(Cl)c1 | 44 | 5.27 | – |
| COc1ccccc1C(=O)Nc1cccc(NC(=O)c2ccc3c(c2)OCO3)c1 | – | > 30 | – |
| O=C(Nc1cccc(NC(=O)c2ccco2)c1)c1cccc(Cl)c1 | 49.3 | 4.51 | – |
| O=C(Nc1cccc(O)c1)c1cccc(N2C(=O)c3ccccc3C2=O)c1 | 48.1 | 7.79 | – |

| SMILES | % Glu Max [1] [%] | IC50 [2] [µM] | IC50 [3] [µM] |
| --- | --- | --- | --- |
| Cc1cccc(C(=O)Nc2cccc(NC(=O)c3cccc(Cl)c3)c2)c1 | – | > 30 | – |
| COc1ccccc1C(=O)Nc1cccc(NC(=O)c2ccccc2Cl)c1 | – | > 30 | – |
| COc1ccccc1C(=O)Nc1cccc(NC(=O)C2CCCC2)c1 | – | > 30 | – |
| COc1ccccc1C(=O)Nc1cccc(NC(=O)C2CCCCC2)c1 | – | > 30 | – |
| COc1ccccc1C(=O)Nc1cccc(NC(=O)c2ccc(F)cc2)c1 | – | > 30 | – |
| CC(C)C(=O)Nc1cccc(NC(=O)c2cccc(Cl)c2)c1 | 26.9 | 5.82 | – |
| COc1ccccc1C(=O)Nc1cccc(NC(C)=O)c1 | – | > 30 | – |
| COc1ccccc1C(=O)Nc1cccc(NC(=O)C(C)C)c1 | – | > 30 | – |
| O=C(Nc1cccc(NC(=O)C2CC2c2ccccc2)c1)c1cccc(Cl)c1 (stereo not drawn) | – | > 30 | – |
| COc1ccccc1C(=O)Nc1cccc(NC(=O)c2cc(Cl)cc(Cl)c2)c1 | – | > 30 | – |
| O=C(Nc1cccc(NC(=O)c2ccc3c(c2)OCO3)c1)c1cccc(Cl)c1 | – | > 30 | – |
| COc1ccccc1C(=O)Nc1cccc(NC(=O)Cc2ccccc2)c1 | – | > 30 | – |
| O=C(Nc1cccc(NC(=O)c2cccc(Cl)c2)c1)c1cccc(Cl)c1 | – | > 30 | – |
| O=C(Nc1ccccc1F)c1cccc(N2C(=O)c3ccccc3C2=O)c1 | 49.9 | 1.05 | – |
| O=C(Nc1cccc(NC(=O)C2CC2)c1)c1cccc(Cl)c1 | 32.3 | 2.23 | – |
| O=C(Nc1cccc(NC(=O)c2cccc(Cl)c2)c1)c1ccc(F)cc1 | – | > 30 | – |
| COc1ccccc1C(=O)Nc1cccc(NC(=O)c2cccc(F)c2)c1 | 25.8 | 6.48 | – |
| COc1ccccc1C(=O)Nc1cccc(NC(=O)C2CCC2)c1 | – | > 30 | – |
| O=C(NC1CC1)c1cccc(N2C(=O)c3ccccc3C2=O)c1 | 68 | > 30 | – |
| O=C(Nc1cccc(NC(=O)C23CC4CC(CC(C4)C2)C3)c1)c1cccc(Cl)c1 | – | > 30 | – |
| COc1ccccc1C(=O)Nc1cccc(NC(=O)c2cccc(C#N)c2)c1 | 3.22 | 1.8 | – |
| O=C(Nc1cccc(NC(=O)C2CCCC2)c1)c1cccc(Cl)c1 | – | > 30 | – |
| O=C(Nc1cccc(NC(=O)c2cccc(C(F)(F)F)c2)c1)c1cccc(Cl)c1 | – | > 30 | – |
| O=C(Nc1ccccn1)c1cccc(N2C(=O)c3ccccc3C2=O)c1 | 59.5 | 1.26 | – |
| COc1ccccc1C(=O)Nc1cccc(NC(=O)c2cccc(Cl)c2)c1 | 2.6 | 0.88 | 1.1 |
